{"source": "patent US20090149472A1", "about": "“SALTS OF SUBSTITUTTED PYRAZOLINE COMPOUNDS, THEIR PREPARATION AND USE AND MEDICAMENTS” (Laboratorios Del Dr. Esteve, S.A., priority 2005, published 2009)", "key": {"CB1-Receptor": {"target": "CB1-Receptor (Homo sapiens, UniProt P21554)", "sequence (P21554 whole entry)": "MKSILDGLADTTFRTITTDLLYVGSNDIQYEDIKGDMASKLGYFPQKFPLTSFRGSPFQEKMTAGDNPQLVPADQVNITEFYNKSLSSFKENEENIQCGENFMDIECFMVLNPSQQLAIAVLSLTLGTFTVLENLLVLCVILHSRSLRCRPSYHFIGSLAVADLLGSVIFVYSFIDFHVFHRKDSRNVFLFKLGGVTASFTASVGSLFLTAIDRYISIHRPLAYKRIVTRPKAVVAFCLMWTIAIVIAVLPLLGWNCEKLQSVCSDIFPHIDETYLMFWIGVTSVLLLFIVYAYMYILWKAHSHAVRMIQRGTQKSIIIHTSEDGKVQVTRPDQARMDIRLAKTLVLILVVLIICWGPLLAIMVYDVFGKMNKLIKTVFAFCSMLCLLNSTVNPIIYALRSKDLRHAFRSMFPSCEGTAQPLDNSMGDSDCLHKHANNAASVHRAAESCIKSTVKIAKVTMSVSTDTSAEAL", "test": "CB1 receptor binding, radioligand [3H]-SR141716A (Table Ia)"}, "[1]": {"test": "In-vivo antidepressant activity, water despair test", "procedure": "The in-vivo testing for antidepressant activity of the inventive pyrazoline compounds in the water despair test is carried out as described in the publication of E. T. Tzavara et al., “The CB1 receptor antagonist SR141716A selectively increases monoaminergic neurotransmission in the medial prefrontal cortex: implications for therapeutic actons”; Br. J. Pharmacol. 2003, 138(4):544:53. The respective part of the description is hereby incorporated by reference and forms part of the present disclosure.\nThe in-vivo testing for antidepressant activity of the inventive pyrazoline compounds in the water despair test was carried out as described above."}, "male NMRI mice [2]": {"system": "male NMRI mice", "test": "Mouse tetrad model, agonistic effect", "type": "in vivo", "set-up": "key to Agonistic effect D: Sedation: % of sedation = mean score (0–3 scale) / 3 × 100; Agonistic effect A: Hot-Plate test / Agonistic effect B: Hypothermia / Agonistic effect C: Catalepsy: unit not given here", "conditions": "5 mg/kg i.v.", "text": "(§1) Substances with affinity for cannabinoid receptors are known to produce a wide range of pharmacological effects. It is also known that intravenous administration of a substance with affinity for cannabinoid receptors in mice produces analgesia, hypothermia, sedation and catalepsy. Individually, none of these effects can be considered as proof that a tested substance has affinity for cannabinoid-receptors, since all of these effects are common for various classes of centrally active agents. However, substances, which show all of these effects, i.e. substances that are active in this so-called tetrad model are considered to have affinity for the cannabinoid receptors.\n(§2) The tetrad model is described, for example, in the publication of A. C. Howlett et al, International Union of Pharmacology XXVII. Classification of Cannabinoid Receptors, Pharmacol Rev 54, 161-202, 2002 and David R. Compton et al., “In-vivo Characterization of a Specific Cannabinoid Receptor Antagonist (SR141716A):Inhibition of Tetrahydrocannbinol-induced Responses and Apparent Agonist Activity”, J. Pharmacol. Exp. Ther. 277, 2, 586-594, 1996. The corresponding parts of the description are hereby incorporated by reference.\n(§3) Male NMRI mice with a weight of 20-30 g (Harlan, Barcelona, Spain) are used in all of the following experiments.\n(§4) Before testing in the behavioral procedures given below, mice are acclimatized to the experimental setting. Pre-Treatment control values are determined for analgesia hot plate latency (in seconds), rectal temperature, sedation and catalepsy.\nIn order to determine the agonistic activity of the substance to be tested, the mice are injected intravenously with the substance to be tested or the vehicle alone. 15 minutes after injection, latency in hot plate analgesia is measured. Rectal temperature, sedation and catalepsy are measured 20 minutes after injection.\n(§5) The hot plate analgesia is determined according to the method described in Woolfe D. et al. “The evaluation of analgesic action of pethidine hydrochloride (Demerol)”, J. Pharmacol. Exp. Ther. 80, 300-307, 1944. The respective description is hereby incorporated by reference and forms part of the present disclosure.\n(§6) The mice are placed on a hot plate (Harvard Analgesimeter) at 55±0.5° C. until they show a painful sensation by licking their paws or jumping and the time for these sensations to occur is recorded. This reading is considered the basal value (B). The maximum time limit the mice are allowed to remain on the hot plate in absence of any painful response is 40 seconds in order to prevent skin damage. This period is called the cut-off time (PC).\n(§7) Fifteen minutes after the administration of the substance to be tested, the mice are again placed on the hot plate and the afore described procedure is repeated. This period is called the post-treatment reading (PT).\n(§8) The degree of analgesia is calculated from the formula:\n(§9) % MPE of Analgesia=(PT−B)/(PC−B)×100\n(§10) Sedation and ataxia is determined according to the method described in Desmet L. K. C. et al. “Anticonvulsive properties of Cinarizine and Flunarizine in Rats and Mice”, Arzneim.-Forsch. (Frug Res) 25, 9, 1975. The respective description is hereby incorporated by reference and forms part of the present disclosure.\n(§11) The chosen scoring system is\n(§12) 0: no ataxia; 1: doubtful; 2: obvious calmness and quiet; 3 pronounced ataxia; prior to as well as after treatment.\n(§13) The percentage of sedation is determined according to the formula:\n(§14) % of sedation=arithmetic mean/3×100\n(§15) Hypothermia is determined according to the method described in David R. Compton et al. “In-vivo Characterization of a Specific Cannabinoid Receptor Antagonist (SR141716A) Inhibition of Tetrahydrocannbinol-induced Responses and Apparent Agonist Activity”, J. Pharmacol Exp Ther. 277, 2, 586-594, 1996. The respective description is hereby incorporated by reference and forms part of the present disclosure. […]"}, "male NMRI mice [3]": {"system": "male NMRI mice", "test": "Mouse tetrad model, antagonistic effect against Win 55212-2", "type": "in vivo", "set-up": "unit not given here", "conditions": "5 mg/kg i.v. prior to Win 55212-2 1.25 mg/kg i.v.", "text": "as §1, §2, §3, §4\nIn order to determine the antagonistic activity the identical procedure is used as for the determination of the agonistic effects, but with the difference that the substance to be evaluated for its antagonistic activity is injected 5 minutes before the intravenous injection of 1.25 mg/kg Win-55,212 a known cannabinoid-receptor agonist.\nas §5, §6, §7, §8, §9, §10, §11, §12, §13, §14, §15"}, "[4]": {"target": "T1, transfected human CB1 receptor (Homo sapiens, UniProt P21554)", "T1 construct": "purchased Receptor Biology, Inc", "T1 sequence (P21554 whole entry)": "as above", "test": "In-vitro affinity to CB1 receptor, radioligand [3H]-CP55940", "type": "binding", "procedure": "(§16) The in-vitro determination of the affinity of the inventive substituted pyrazoline compounds to CB1/CB2-Rezeptors is carried out as described in the publication of Ruth A. Ross, Heather C. Brockie et al., “Agonist-inverse agonist characterization at CB1 and CB2 cannabinoid receptors of L-759633, L759656 and AM630”, British Journal of Pharmacology, 126, 665-672, (1999), whereby the transfected human CB1 and CB2 receptors of Receptor Biology, Inc. are used. The radioligand used for both receptors is [^3H]-CP55940. The respective parts of the description is hereby incorporated by reference and forms part of the present disclosure.\n(§17) The affinity of the inventive substituted pyrazoline compounds to CB1/CB2 receptors was determined as described above."}, "[5]": {"target": "T2, transfected human CB2 receptor (Homo sapiens, UniProt P34972)", "T2 construct": "purchased Receptor Biology, Inc", "T2 sequence (P34972 whole entry)": "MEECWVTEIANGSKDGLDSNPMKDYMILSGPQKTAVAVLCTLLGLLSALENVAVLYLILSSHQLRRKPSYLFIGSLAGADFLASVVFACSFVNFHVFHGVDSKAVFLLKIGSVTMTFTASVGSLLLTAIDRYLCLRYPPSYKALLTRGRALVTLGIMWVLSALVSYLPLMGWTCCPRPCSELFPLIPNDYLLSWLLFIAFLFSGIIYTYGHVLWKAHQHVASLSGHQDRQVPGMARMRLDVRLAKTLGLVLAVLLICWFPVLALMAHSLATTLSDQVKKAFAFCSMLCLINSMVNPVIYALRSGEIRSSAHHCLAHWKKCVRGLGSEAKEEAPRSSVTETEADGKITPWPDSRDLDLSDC", "test": "In-vitro affinity to CB2 receptor, radioligand [3H]-CP55940", "type": "binding", "procedure": "as §16, §17"}, "rats": {"system": "rats", "test": "In-vivo testing for antiobesic activity", "set-up": "species or system rat", "procedure": "The in-vivo testing for antiobesic activity of the inventive pyrazoline compounds is carried out as described in the publication of G. Colombo et al., “Appetite Suppression and Weight Loss after the Cannabinoid Antagonist SR 141716”; Life Sciences, 63 (8), 113-117, (1998). The respective part of the description is hereby incorporated by reference and forms part of the present disclosure.\nThe in-vivo testing for antiobesic activity was carried out as described above, whereby four different groups of 10 rats each were treated as follows:\nThe second group of rats was treated with the inventive compound N-piperidinyl-5-(4-chlorophenyl)-1-(2,4-dichlorophenyl)-4,5-dihydropyrazole-3-carboxamide according to Example 1. Said compound was administered intraperitoneally to the rats over a period of 14 days in a daily dosis of (10 mg/kg body weight)."}, "[6]": {"conditions": "read-out: CB1-Receptor Radioligand: [3H]-SR141716A % Inhibition 10^-7 M"}}, "note": "Read-outs that look alike come from different tables or passages of the source."}
{"smiles": "O=C(Nn1cnnc1)C1=NN(c2ccc(Cl)cc2Cl)C(c2ccc(Cl)cc2)C1", "note": "(stereo not drawn)", "values": [{"measurement": "melting point", "result": "134 to 138", "unit": "°C"}]}
{"smiles": "CN1CCN(NC(=O)C2=NN(c3ccc(Cl)cc3Cl)C(c3ccc(Cl)cc3)C2)CC1.Cl", "note": "(stereo not drawn)", "values": [{"measurement": "melting point", "result": "150 to 155", "unit": "°C"}]}
{"smiles": "O=C(NN1CCCCC1)C1=NC(c2ccc(Cl)cc2Cl)[C@@H](c2ccc(Cl)cc2)C1", "note": "(stereo partly drawn)", "values": [{"measurement": "inhibition at 0.1 µM", "setting": "CB1-Receptor; 10^-7 M, [3H]-SR141716A, read-out: CB1-Receptor Radioligand: [3H]-SR141716A % Inhibition 10^-7 M", "result": 82.7, "unit": "%"}]}
{"smiles": "O=C(NN1CCCCC1)C1=NN(c2ccc(Cl)cc2Cl)C(c2ccc(Cl)cc2)C1.O=[N+]([O-])O", "note": "(stereo not drawn)", "values": [{"measurement": "CB1-Receptor Radioligand: [3H]-SR141716A % Inhibition 10^-7 M", "setting": "CB1-Receptor; 10^-7 M, [3H]-SR141716A", "result": 83.6, "unit": "%"}]}
{"smiles": "O=C(NN1CCCCC1)C1=NN(c2ccc(Cl)cc2Cl)[C@@H](c2ccc(Cl)cc2)C1", "values": [{"measurement": "inhibition at 0.1 µM", "setting": "CB1-Receptor; [6]", "result": 83.3, "unit": "%"}]}
{"smiles": "O=C(NN1CCCCC1)C1=NN(c2ccc(Cl)cc2Cl)C(c2ccc(Cl)cc2)C1", "note": "(stereo not drawn) [Example 1, N-piperidinyl-5-(4-chlorophenyl)-1-(2,4-dichlorophenyl)-4,5-dihydro-1H-pyrazole-3-carboxamide]", "values": [{"measurement": "immobility time and struggling time", "setting": "[1]", "result": "positive effects"}, {"measurement": "Agonistic effect A: Hot-Plate test", "setting": "male NMRI mice [2]", "result": 0}, {"measurement": "Agonistic effect B: Hypothermia", "setting": "male NMRI mice [2]", "result": 0}, {"measurement": "Agonistic effect C: Catalepsy", "setting": "male NMRI mice [2]", "result": 0}, {"measurement": "Agonistic effect D: Sedation", "setting": "male NMRI mice [2]", "result": 0}, {"measurement": "Antagonistic Effect A: Hot-Plate test", "setting": "male NMRI mice [3]", "result": 74}, {"measurement": "Antagonistic Effect B: Hypothermia", "setting": "male NMRI mice [3]", "result": 100}, {"measurement": "Antagonistic Effect C: Catalepsy", "setting": "male NMRI mice [3]", "result": 100}, {"measurement": "Antagonistic Effect D: Sedation", "setting": "male NMRI mice [3]", "result": 100}, {"measurement": "Ki", "setting": "[4]", "result": "< 25", "unit": "nM"}, {"measurement": "Ki", "setting": "[5]", "result": "> 1000", "unit": "nM"}, {"measurement": "body weight", "setting": "rats; 10 mg/kg daily intraperitoneally over 14 days (FIG. 1)", "result": "lowered"}, {"measurement": "food intake", "setting": "rats; 10 mg/kg daily intraperitoneally over 14 days (FIG. 2)", "result": "reduction"}, {"measurement": "body weight effect after the treatment is ended", "setting": "rats; after end of 14 days of 10 mg/kg daily i.p. (FIG. 1)", "result": "also observed after the treatment is ended"}]}
{"smiles": "O=C(C1=NN(c2ccc(Cl)cc2Cl)C(c2ccc(Cl)cc2)C1)N1CCCCC1", "note": "(stereo not drawn) [Example 5, [5-(4-Chloro-phenyl)-1-(2,4-dichloro-phenyl)-4,5-dihydro-1H-pyrazol-3-yl]-piperidin-1-yl-methanone]", "values": [{"measurement": "Agonistic effect A: Hot-Plate test", "setting": "male NMRI mice [2]", "result": 0}, {"measurement": "Agonistic effect B: Hypothermia", "setting": "male NMRI mice [2]", "result": 50}, {"measurement": "Agonistic effect C: Catalepsy", "setting": "male NMRI mice [2]", "result": 0}, {"measurement": "Agonistic effect D: Sedation", "setting": "male NMRI mice [2]", "result": 0}, {"measurement": "Antagonistic Effect A: Hot-Plate test", "setting": "male NMRI mice [3]", "result": 50}, {"measurement": "Antagonistic Effect B: Hypothermia", "setting": "male NMRI mice [3]", "result": 40}, {"measurement": "Antagonistic Effect C: Catalepsy", "setting": "male NMRI mice [3]", "result": 20}, {"measurement": "Antagonistic Effect D: Sedation", "setting": "male NMRI mice [3]", "result": 20}, {"measurement": "melting point", "result": "105 to 110", "unit": "°C"}]}
{"smiles": "O=C(NN1CCCCC1)C1=NN(c2ccc(Cl)cc2Cl)C(c2ccc(Cl)cc2)C1", "note": "(stereo not drawn) [drawing 82]", "values": [{"measurement": "inhibition at 0.1 µM", "setting": "CB1-Receptor; read-out: CB1-Receptor Radioligand: [3H]-SR141716A % Inhibition 10^-7 M, 10^-7 M, [3H]-SR141716A", "result": 82.6, "unit": "%"}]}
{"smiles": "O=C(NN1CCCCC1)C1=NN(c2ccc(Cl)cc2Cl)C(c2ccc(Cl)cc2)C1", "note": "(stereo not drawn) [drawing 84]", "values": [{"measurement": "inhibition at 0.1 µM", "setting": "CB1-Receptor; [6]", "result": 99.7, "unit": "%"}]}
